Measurements from ChEMBL document CHEMBL1139430, “Synthesis of a natural product-inspired eight-membered ring lactam library via ring-closing metathesis” (Bioorg Med Chem Lett, 2008).

Legend:
[1] = Antiproliferative activity against mouse Pan02 cells at day 4 by MTS/PMS assay; assay type: functional, cell-based; conditions: Pan02, 96 h
[2] = system: L1210; assay: Antiproliferative activity against mouse L1210 cells at day 4 by MTS/PMS assay; assay type: functional, cell-based; conditions: L1210, 96 h
[3] = system: HL-60; assay: Antiproliferative activity against human HL60 cells at day 4 by MTS/PMS assay; assay type: functional, cell-based; conditions: HL-60, 96 h
[4] = system: HL-60; assay: Antiproliferative activity against human HL60 cells at 62.5 to 156.25 uM at day 4 by MTS/PMS assay; assay type: functional

SMILES	IC50 [1]	IC50 [2]	IC50 [3]	inhibition (INH) [4]
COc1ccc([C@H]2/C=C\C[C@H](NC(=O)c3ccccc3)CC(=O)N2Cc2ccc(F)cc2)cc1 (relative stereo)	40.6 µM	27.1 µM	54.7 µM	–
COc1ccc([C@H]2/C=C\C[C@H](NS(=O)(=O)c3ccc4ccccc4c3)CC(=O)N2Cc2ccc(F)cc2)cc1 (relative stereo)	–	8.5 µM	–	<50%
CCCCS(=O)(=O)N[C@H]1C/C=C\[C@H](c2ccc(OC)cc2)N(Cc2ccc(F)cc2)C(=O)C1 (relative stereo)	–	37.9 µM	–	<50%
COc1ccc(C(=O)N[C@H]2C/C=C\[C@H](c3ccc(OC)cc3)N(Cc3ccc(F)cc3)C(=O)C2)cc1 (relative stereo)	34.9 µM	25.2 µM	40.1 µM	–
COc1ccc([C@H]2/C=C\C[C@H](NS(=O)(=O)c3cccc4cccnc34)CC(=O)N2Cc2ccc(F)cc2)cc1	–	15.4 µM	–	<50%
COc1ccc([C@H]2/C=C\C[C@H](NS(=O)(=O)c3ccc(C)cc3)CC(=O)N2Cc2ccc(F)cc2)cc1 (relative stereo)	–	11 µM	–	<50%
COc1ccc([C@H]2/C=C\C[C@H](NC(=O)C3CCCC3)CC(=O)N2Cc2ccc(F)cc2)cc1 (relative stereo)	–	40.1 µM	–	<50%
